Measured values reported in article PMC6270026, “Antibacterial and Herbicidal Activity of Ring-Substituted 2-Hydroxynaphthalene-1-carboxanilides” (Molecules, 2013).
pIC50: −log10 of the molar value. Converted amounts (≈) assume the structure as drawn. Where two headings read alike, the source gives them in different places.

Tests used:
[1] = Lipophilicity determination by RP-HPLC (capacity factor log k); format: physicochemical; settings: isocratic, MeOH 60%/H2O 40%, C18
Description: A HPLC system Agilent 1200 equipped with DAD detector (Agilent, Santa Clara, CA, USA) was used. A chromatographic column Symmetry® C18 5 μm, 4.6 × 250 mm, Part No. WAT054275, (Waters Corp., Milford, MA, USA) was used. The HPLC separation process was monitored and evaluated by EZChrom Elite software ver. 3.3.2 (Agilent). Isocratic elution by a mixture of MeOH p.a. (60%) and H2O-HPLC Mili-Q grade (40%) as a mobile phase was used. The total flow of the column was 1.0 mL/min, injection 20 μL, column temperature 40 °C and sample temperature 10 °C. The detection wavelength 210 nm was chosen. The KI methanolic solution was used for the dead time (tD) determination. Retention times (tR) were measured in minutes. The capacity factors k were calculated according to formula k = (tR − tD)/tD, where tR is the retention time of the solute, whereas tD denotes the dead time obtained using an unretained analyte. Log k, calculated from the capacity factor k, is used as the lipophilicity index converted to log P scale.

[2] = test system: photosynthetic electron transport (PET) in spinach chloroplasts; experiment: Inhibition of photosynthetic electron transport (PET) in spinach chloroplasts; format: biochemical, Spinacia oleracea L.; settings: DCPIP photoreduction
Description: Chloroplasts were prepared from spinach (Spinacia oleracea L.) according to Masarovicova and Kralova. The inhibition of photosynthetic electron transport (PET) in spinach chloroplasts was determined spectrophotometrically (Genesys 6, Thermo Electron Scientific Instruments, Madison, WI, USA), using an artificial electron acceptor 2,6-dichlorophenol-indophenol (DCPIP) according to Kralova et al., and the rate of photosynthetic electron transport was monitored as a photoreduction of DCPIP. The measurements were carried out in phosphate buffer (0.02 mol/L, pH 7.2) containing sucrose (0.4 mol/L), MgCl2 (0.005 mol/L) and NaCl (0.015 mol/L). The chlorophyll content was 30 mg/L in these experiments and the samples were irradiated (~100 W/m^2 with 10 cm distance) with a halogen lamp (250 W) using a 4 cm water filter to prevent warming of the samples (suspension temperature 22 °C). The studied compounds were dissolved in DMSO due to their limited water solubility. […] The inhibitory efficiency of the studied compounds was expressed by IC50 values, i.e., by molar concentration of the compounds causing 50% decrease in the oxygen evolution rate relative to the untreated control.

[3] = test system: Staphylococcus aureus ATCC 29213; experiment: In vitro antibacterial susceptibility testing (broth dilution MIC); format: cell-based; settings: ATCC29213; Staphylococcus aureus ATCC 29213, 24 h, 37 °C
Description: (§1) The synthesized compounds were evaluated for in vitro antibacterial activity against representatives of multidrug-resistant bacteria, clinical isolates of methicillin-resistant Staphylococcus aureus (MRSA) 63718, SA 630 and SA 3202 that were obtained from the National Institute of Public Health, Prague, Czech Republic. Staphylococcus aureus ATCC 29213 was used as a reference and quality control strain. Ampicillin (Sigma-Aldrich) was used as the standard. Prior to testing, each strain was passaged onto nutrient agar (Oxoid, Hampshire, UK) with 5% of bovine blood, and bacterial inocula were prepared by suspending a small portion of bacterial colony in sterile phosphate buffered saline (pH 7.2–7.3). The cell density was adjusted to 0.5 McFarland units using a densitometer (Densi-La-Meter, LIAP, Riga, Latvia). The final inoculum was made by 1:20 dilution of the suspension with the Mueller-Hinton broth (MH broth). […] The final concentrations of the evaluated compounds ranging from 256 μg/mL to 0.008 μg/mL. The broth dilution micro-method modified according to NCCLS guidelines in MH broth was used to determine the minimum inhibitory concentration (MIC). Drug-free controls, sterility controls and controls consisted of MH broth and DMSO alone were included. The determination of results was performed visually after 24 h of static incubation in the darkness at 37 °C in an aerobic atmosphere. The MICs were defined as the lowest concentration of the compound at which no visible bacterial growth was observed.

[4] = test system: methicillin-resistant Staphylococcus aureus (MRSA) 63718; experiment: as above; format: cell-based; settings: clinical isolate MRSA 63718, 24 h, 37 °C
Description: as §1

[5] = test system: methicillin-resistant Staphylococcus aureus SA 3202; experiment: as above; format: cell-based; settings: MRSA, read-out: MIC MRSA 3202
Description: as §1

[6] = test system: methicillin-resistant Staphylococcus aureus SA 630; experiment: as above; format: cell-based; settings: MRSA, clinical isolate SA 630, 24 h, 37 °C
Description: as §1

[7] = test system: Mycobacterium marinum CAMP 5644; experiment: In vitro antimycobacterial evaluation (broth dilution MIC); format: cell-based; settings: Mycobacterium marinum, CAMP5644, 504 h, M. marinum CAMP 5644, 21 days, 28 °C
M. kansasii DSM 44162 = experiment: as above; format: cell-based; settings: Mycobacterium kansasii, DSM44162, 168 h; M. kansasii DSM 44162, 7 days, 37 °C
M. smegmatis ATCC 700084 = experiment: as above; format: cell-based, Mycobacterium smegmatis; settings: Mycolicibacterium smegmatis, ATCC700084, 72 h; M. smegmatis ATCC 700084, 3 days, 37 °C
[8] = test system: human monocytic leukemia THP-1 cells; experiment: In vitro cytotoxicity assay (LDH); format: cell-based; settings: treatment with 20 µmol/L, 24 h
Description: Human monocytic leukemia THP-1 cells were obtained from the European Collection of Cell Cultures (ECACC, Salisbury, UK; Methods of characterization: DNA Fingerprinting (Multilocus probes) and isoenzyme analysis). These cells were routinely cultured in RPMI 1640 (Lonza, Verviers, Belgium) medium supplemented with 10% fetal bovine serum (FBS, Sigma-Aldrich), 2% L-glutamine, 1% penicillin and streptomycin (Lonza, Verviers, Belgium) at 37 °C with 5% CO2. Cells were passaged at approximately 1 week intervals. Cells were routinely tested for the absence of mycoplasma (Hoechst 33258 staining method). The tested compounds were dissolved in DMSO (Sigma-Aldrich) and added in five increasing concentrations to the cell suspension in the culture medium. The maximum concentration of DMSO in the assays never exceeded 0.1%. Subsequently, the cells were incubated for 24 h at 37 °C with 5% CO2 to various compound concentrations ranging from 0.37 to 20 μmol/L in RPMI 1640 medium. Cell toxicity was determined using a Cytotoxicity Detection Kit^PLUS Lactate dehydrogenase (LDH) assay kit (Roche Diagnostics, Mannheim, Germany) according to the manufacturer’s instructions, as described previously. […] All data were evaluated using GraphPad Prism 5.00 software (GraphPad Software, San Diego, CA, USA).

[9] = clinical isolate SA 3202, 24 h, 37 °C

Structure (SMILES)	log k [1]	pIC50 [2]	MIC [3]	MIC [4]	MIC [5, 9]	MIC [6]	MIC [7]	MIC (M. kansasii DSM 44162)	MIC (M. smegmatis ATCC 700084)	lethal effect on THP-1 cells [8]	MIC ([5]; 24 h)
O=C(Nc1ccccc1C(F)(F)F)c1c(O)ccc2ccccc12 [Compound 7a, 2-Hydroxy-N-(2-trifluoromethylphenyl)naphthalene-1-carboxamide]	0.8353	3.82	97.1 µM (≈ 32.2 µg/mL)	193 µM (≈ 63.9 µg/mL)	193 µM (≈ 63.9 µg/mL)	97.1 µM (≈ 32.2 µg/mL)	96.6 µM (≈ 32 µg/mL)	96.6 µM (≈ 32 µg/mL)	386 µM (≈ 128 µg/mL)	did not lead to significant lethal effects	–
O=C(Nc1ccccc1Cl)c1c(O)ccc2ccccc12 [Compound 5a, N-(2-chlorophenyl)-2-hydroxynaphthalene-1-carboxamide]	0.8984	4.30	215 µM (≈ 64 µg/mL)	860 µM (≈ 256 µg/mL)	–	> 860 µM	107 µM (≈ 31.9 µg/mL)	107 µM (≈ 31.9 µg/mL)	107 µM (≈ 31.9 µg/mL)	did not lead to significant lethal effects	> 860 µM
O=C(Nc1cccc(C(F)(F)F)c1)c1c(O)ccc2ccccc12 [Compound 7b, 2-Hydroxy-N-(3-trifluoromethylphenyl)naphthalene-1-carboxamide]	0.9411	4.34	> 748 µM	187 µM (≈ 62 µg/mL)	94 µM (≈ 31.1 µg/mL)	374 µM (≈ 124 µg/mL)	> 748 µM	93.5 µM (≈ 31 µg/mL)	> 748 µM	did not lead to significant lethal effects	–
